Columns and labels:
human ERβ (ERβ-LBD) = target: T1, human ERβ (ERβ-LBD) (Homo sapiens, UniProt Q92731); experiment: Binding assay 1: estrogen receptor SPA binding assay (3H-E2 displacement), ERβ; conditions: read-out: binding affinity to the estrogen receptor β-subtype, IC50
T1 construct: ERβ (ERβ-LBD, pET-N-AT #1, aa 255-530); made in house; host or cells: E. coli BL21 (DE3) pBirA
Method: Binding Assay 1: Estrogen Receptor Binding Assay
The estrogen receptor ligand binding assays are designed as scintillation proximity assays (SPA), employing the use of tritiated estradiol (^3H-E2) and recombinant expressed biotinylated estrogen receptor binding domains. The binding domains of human ERα (ERα-LBD, pET-N-AT #1, aa 301-595) and ERβ (ERβ-LBD, pET-N-AT #1, aa 255-530) proteins are produced in E. coli ((BL21, (DE3), pBirA)) at 22 C in 2×LB medium supplemented with 50 uM biotin. After 3 h of IPTG induction (0.55 mM), cells are harvested by centrifugation at 7300×g for 15 min and cell pellets stored frozen in −20 C. Extraction of ERα and ERβ are performed using 5 g of cells suspended in 50 mL of extraction buffer (50 mM Trig, pH 8.0, 100 mM KCl, 4 mM EDTA, 4 mM DDT and 0.1 mM PMSF). The cell suspension is run twice through a Microfluidizer M-110L (Microfluidics) and centrifuged at 15,000×g for 60 min. The supernatant is aliquoted and stored in −70 C.
Dilute ERα-LBD or ERβ-LBD extracts in assay buffer (18 mM K2HPO4, 2 mM KH2PO4, 20 mM NasMoO4, 1 mM EDTA, 1 mM TCEP) 1:676 and 1:517 for alpha and beta respectively. The diluted receptor concentrations should be 900 fmol/L. Preincubate the extracts with streptavidin coated polyvinyltoluene SPA beads (RPNQ0007, GE Healthcare) at a concentration of 0.43 mg/mL for 1 hr at room temperature.
Test compounds are evaluated over a range of concentrations from 157 μM to 37.5 pM. The test compound stock solutions should be made in 100% DMSO at 5× of the final concentration desired for testing in the assay. The amount of DMSO in the test wells of the 384 well plate will be 20%. Add 18 μl aliquots of test compounds to the assay plates followed by 35 μl of the preincubated receptor/SPA bead mix and finally add 35 μl of 3 nM ^3H-E2. Cover the plates with a plastic sealer, centrifuge for 1 minute at 1000 rpm and equilibrate over night on a shaker at room temperature. The following morning, centrifuge the plates 5 minutes at 2000 rpm and measure on a plate scintillation counter e.g. a PerkinElmer Microbeta 1450 Trilux.
For compounds able to displace 3[H]-E2 from the receptor an IC50-value (the concentration required to inhibit 50% of the binding of 3[H]-E2) is determined by a non-linear four parameter logistic model; b=((bmax−bmin)/(1+(I/IC50)S))+bmin I is added concentration of binding inhibitor, IC50 is the concentration of inhibitor at half maximal binding and S is a slope factor. The Microbeta-instrument generates the mean cpm (counts per minute) value/minute and corrects for individual variations between the detectors thus generating corrected cpm values.

[1] = target: T2, human estrogen receptor beta (hERβ 530) (Homo sapiens, UniProt Q92731); experiment: Transactivation assay 2: HEK293 cells stably transfected with pERE2-ALP and human estrogen receptor beta; assay type: cell-based; conditions: read-out: potency at the estrogen receptor β-subtype, EC50
T2 construct: expressed in transfected cells
Method: Transactivation Assay 2: Transactivation Assay in Human Embryonic Kidney 293 Cells Stably Transfected with pERE2-ALP and Human Estrogen Receptor Beta
Generation of stable HEK293 cell lines (CRL-1573; American Type Culture Collection) expressing the reporter vector pERE2-ALP and human estrogen receptor beta (hERβ 530) have been described (Mol Pharmacol 1998, 54, 105-112; Endocrinology 2002, 143, 1558-1561),
The cells were seeded in 384-well plates at 12 500 cells per well in Ham's F12 Coon's modification (without phenol red) with 10% dextran-coated charcoal treated (DCC) fetal bovine serum (FBS), 2 mM L-glutamine and 50 μg/ml gentamicin. After 24 h incubation (37° C., 5% CO2) the seeding medium was discarded and replaced with 20 μl Ham's F12 Coon's modification (without phenol red) with 1.5 DCC-FCS, 2 mM L-glutamine and supplemented with 100 U/ml penicillin and 100 μg/ml streptomycin. The selected compounds were added to the wells in 12 concentrations ranging from […] to 33 μM. The compounds were dissolved in 100% dimethylsulfoxide (DMSO) and the final concentration of DMSO in the assay was 0.1%. After 72 h incubation (37° C., 5% CO2) the medium was assayed for ALP activity by a chemiluminescence assay; a 10 μl aliquot of the conditioned medium was mixed with 100 μl assay buffer (0.1 M diethanolamine, 1 mM MgCl2) and 0.5 mM disodium 3-(4-methoxyspiro 1,2-dioxetane-3,2′-(5′-chloro)-tricyclo[3.3.1.13,7]decan-4-yl)phenyl phosphate (CSPD) (Tropix, Applied Biosystems) and incubated for 20 min at 37° C. and 15 min at room temperature before measurement of the chemiluminescent signal (one second per well) in a Wallac Microbeta Trilux 1450-028 (PerkinElmer). The ALP activity expressed in LCPS is directly proportional to the level of ALP expressed by the cells. The half maximal effective concentrations of the test compounds (EC50) were calculated from the curves fitted to the concentration-response data with a four parameter logistic model in XLfit software version 2.0 (IDBS) or later.

T2 sequence (Q92731 whole entry): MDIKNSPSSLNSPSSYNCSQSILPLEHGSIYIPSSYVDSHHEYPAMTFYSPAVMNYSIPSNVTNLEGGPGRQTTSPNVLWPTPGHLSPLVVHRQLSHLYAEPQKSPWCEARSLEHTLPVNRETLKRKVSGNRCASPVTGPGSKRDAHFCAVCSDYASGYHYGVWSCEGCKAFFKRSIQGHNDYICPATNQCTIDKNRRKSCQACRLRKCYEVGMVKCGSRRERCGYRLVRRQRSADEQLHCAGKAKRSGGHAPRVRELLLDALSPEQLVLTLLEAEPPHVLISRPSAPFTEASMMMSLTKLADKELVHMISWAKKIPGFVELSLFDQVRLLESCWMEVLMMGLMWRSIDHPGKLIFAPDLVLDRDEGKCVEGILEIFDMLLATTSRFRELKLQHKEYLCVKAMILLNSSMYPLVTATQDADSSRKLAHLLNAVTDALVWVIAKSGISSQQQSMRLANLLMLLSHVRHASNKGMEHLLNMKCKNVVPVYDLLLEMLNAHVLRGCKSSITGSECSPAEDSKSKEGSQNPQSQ
T1 sequence (Q92731 255-530): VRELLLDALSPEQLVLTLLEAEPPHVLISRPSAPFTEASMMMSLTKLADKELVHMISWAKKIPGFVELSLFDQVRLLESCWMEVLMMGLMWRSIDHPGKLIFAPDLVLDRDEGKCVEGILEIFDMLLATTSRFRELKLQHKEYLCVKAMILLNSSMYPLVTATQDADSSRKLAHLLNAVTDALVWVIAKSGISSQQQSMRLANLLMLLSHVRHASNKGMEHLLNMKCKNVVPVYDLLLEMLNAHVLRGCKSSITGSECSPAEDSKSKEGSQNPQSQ

C/C=C\c1c(C#N)c2ccccc2n1-c1ccc(O)cc1 [Example 68, 1-(4-Hydroxy-phenyl)-2-((Z)-propenyl)-1H-indole-3-carbonitrile] gave an IC50 (human ERβ (ERβ-LBD)) of 1 to 200 nM and an EC50 [1] of 1 to 50 nM.

Work on Cc1noc(C)c1-c1c(/C(N)=N/O)c2ccccc2n1-c1ccc(O)cc1 [Example 11, (Z)-2-(3,5-dimethylisoxazol-4-yl)-N′-hydroxy-1-(4-hydroxyphenyl)-1H-indole-3-carboximidamide] yielded an IC50 (human ERβ (ERβ-LBD)) of 1 to 200 nM and an EC50 [1] of 1 to 50 nM.

With Cc1cccn1-c1c(/C(N)=N/O)c2ccccc2n1-c1ccc(O)cc1 [Example 188, (Z)-N′-hydroxy-1-(4-hydroxyphenyl)-2-(2-methyl-1H-pyrrol-1-yl)-1H-indole-3-carboximidamide] the IC50 (human ERβ (ERβ-LBD)) was 1 to 200 nM and the EC50 [1] was 1 to 50 nM.

For Cc1noc(C)c1-c1c(-c2ccccc2)c2ccccc2n1-c1ccc(O)cc1 [Example 42, 4-(2-(3,5-dimethylisoxazol-4-yl)-3-phenyl-1H-indol-1-yl)phenol], the IC50 (human ERβ (ERβ-LBD)) was 1 to 200 nM and the EC50 [1] was 1 to 50 nM.

C=C(C)c1c(-c2ccccc2)n(-c2ccc(O)cc2)c2ccccc12 [Example 163, 4-(3-Isopropenyl-2-phenyl-indol-1-yl)-phenol] was tested, and the IC50 (human ERβ (ERβ-LBD)) was 1 to 200 nM and the EC50 [1] was 1 to 50 nM.

Work on Cc1noc(C)c1-c1c(C(N)=NO)c2ccccc2n1-c1ccc(O)cc1F [Example 235, (Z)-2-(3,5-dimethylisoxazol-4-yl)-1-(2-fluoro-4-hydroxyphenyl)-N′-hydroxy-21H-indole-3-carboximidamide] yielded an IC50 (human ERβ (ERβ-LBD)) of 1 to 200 nM and an EC50 [1] of 1 to 50 nM.

In the case of CC(C)=Cc1c(C#N)c2cc(F)ccc2n1-c1ccc(O)cc1 [Example 220, 5-Fluoro-1-(4-hydroxy-penyl)-2-(2-methyl-prop-1-enyl)-1H-indole-3-carbonitrile], the IC50 (human ERβ (ERβ-LBD)) is reported as 1 to 200 nM and the EC50 [1] is reported as 1 to 50 nM.

CC(C)=Cc1c(/C(N)=N/O)c2cc(F)ccc2n1-c1ccc(O)cc1 [Example 223, (Z)-5-fluoro-N′-hydroxy-1-(4-hydroxyphenyl)-2-(2-methylprop-1-enyl)-1H-indole-3-carboximidamide] gave an IC50 (human ERβ (ERβ-LBD)) of 1 to 200 nM and an EC50 [1] of 1 to 50 nM.

With C/C=C(/C)c1c(/C(N)=N/O)c2ccccc2n1-c1ccc(O)cc1 [Example 191, (Z)-2-((Z)-but-2-en-2-yl)-N′-hydroxy-1-(4-hydroxyphenyl)-1H-indole-3-carboximidamide] the IC50 (human ERβ (ERβ-LBD)) was 1 to 200 nM and the EC50 [1] was 1 to 50 nM.

Work on Cc1ccc(C)n1-c1c(/C(N)=N/O)c2ccccc2n1-c1ccc(O)cc1 [Example 194, (Z)-2-(2,5-dimethyl-1H-pyrrol-1-yl)-N′-hydroxy-1-(4-hydroxyphenyl)-1H-indole-3-carboximidamide] yielded an IC50 (human ERβ (ERβ-LBD)) of 1 to 200 nM and an EC50 [1] of 1 to 50 nM.

Cc1noc(C)c1-c1c(/C(N)=N/O)c2cc(F)ccc2n1-c1ccc(O)cc1 [Example 221, (Z)-2-(3,5-dimethylisoxazol-4-yl)-5-fluoro-N′-hydroxy-1-(4-hydroxyphenyl)-1H-indole-3-carboximidamide] was tested, and the IC50 (human ERβ (ERβ-LBD)) was 1 to 200 nM and the EC50 [1] was 1 to 50 nM.

Work on CC(C)=Cc1c(C#N)c2ccccc2n1-c1ccc(O)cc1 [Example 39, 2-(Isobut-1-enyl)-1-(4-hydroxyphenyl)-1H-indole-3-carbonitrile] yielded an IC50 (human ERβ (ERβ-LBD)) of 1 to 200 nM and an EC50 [1] of 1 to 50 nM.
